Measured values from patent US10624917B2, “Compositions and methods useful for treating or preventing liver diseases or disorders, and promoting weight loss” (YALE UNIVERSITY, priority 2014, dated 2020).
“Also recorded” adds a separate entry of the source.

Test system: IL-1β production in murine peritoneal macrophages (PECs)
Experiment: IL-1β secretion (ELISA) by primed, ATP-pulsed peritoneal macrophages (PECs)
Assay type: cell-based, mouse
Procedure: FIGS. 1A-1J illustrate the finding that adenosine stimulates IL-1β production in NLRP3 inflammasome-dependent manner. Murine peritoneal macrophages (PECs) were obtained from wild type (WT) mice (FIGS. 1A-1D, 1F-1I), Il1r−/− (FIG. 1E) or Nlrp3−/−, ASC−/−, P2xr7−/−, or Caspase-1−/− mice (FIG. 1J) and were primed with LPS for 16 hours. FIG. 1A: This was followed by treatment for 1 hour with adenosine (Ad, 100 μM), adenosine deaminase inhibitor (EHNA, 10 μM), adenosine deaminase (ADA, 10 U ml^−1), ATP diphosphohydrolase (Apyrase, 10 U ml^−1), or erythro-9-(2-hydroxy-3-nonyl) adenine (EHNA, 10 μM) (FIGS. 1B, 1F-1J)). Pan adenosine agonist (NECA, 1 μM, 10 μM) (FIGS. 1C, 1E), or (FIGS. 1D, 1I) by NECA for 1 and 6 hours, and were then pulsed with ATP for 20 min. Enzyme-linked immunosobent assay (ELISA) of IL-1β, TNF-α, IL-10 and IFN-γ secretion were measured in cell supernatants after pulsing with ATP for 5 hours (FIGS. 1A, 1C-1E, 1J) or indicated time-course (FIGS. 1B, 1G-1I). LDH assay was performed after pulsing with ATP as indicated time-course (FIG. 1F). Data are expressed as the mean±SD from at least three independent experiments. *p<0.05 determined by Student's t-test.
C57BL/6 mice were purchased from the National Cancer Institute. ASC−/−, Caspase-1−/−, Nlrp3−/− and P2xr7−/− mice have been described (Rock et al., 2010, Annu Rev Immunol. 28:321-42). A2ora2a flox/flox mice and LysMcre mice were purchased from Jackson Laboratories. HIF-1a flox/flox mice were kindly provided by Dr. Ruslan M Medzhitov (Yale University). 7- to 12-week-old males with a variety of genetic manipulations were used in most experiments. The number of mice in each experimental group was chosen based on previous experience with these experimental models. Mouse peritoneal macrophages (PECs) were isolated by peritoneal lavage 3 days after intraperitoneal injection of 4% thioglycollate solution (B2551, Fluka,). Cells were plated at the density of 3×10^6 cells in 12-well dishes and non-adherent cells were removed after 3 h. Cells primed overnight with 100 ng/ml LPS or 10 ng/ml Pam3CSK4 were treated with various chemicals and followed stimulation. Cells were cultured in DMEM medium complemented with 10% FBS, penicillin/streptomycin and L-glutamine. Mouse bone marrow derived macrophages were isolated from bone marrow cells, and were differentiated for 7 days in complete RPMI-1640 medium supplemented with 2 mM L-glutamine, 100 U/ml penicillin, 100 μg/ml streptomycin, 50 μM 2-mercaptoethanol (all from Invitrogen), 10% heat-inactivated FBS and 20 ng/ml M-CSF (PeproTech). Kupffer cells (KC) were isolated by the density gradient separation of Optiprep (Sigma), and then plates were gently washed and media was replenished after seeding cells for 2 hours to raise KC purity.
Primed PECs were both pulsed for 20 min with 5 mM ATP or 10 μM nigericin, and left untreated until culture supernatants were collected. Secretion of IL-1β was determined by enzyme-linked immunoabsorbent assay (ELISA; R&D Systems).

[1] = LPS-primed PECs pulsed with ATP
[2] = PECs from A2A receptor deficient cells

Structure (SMILES)	IL-1β production [1]	IL-1β production [2]	IL-1β production in wild-type vs IL-1 receptor deficient macrophages (LPS + ATP)	IL-1β production by LPS and ATP (macrophages lacking caspase-1, NLRP3, ASC or P2x7 receptor)
CCNC(=O)[C@H]1O[C@@H](n2cnc3c(N)nc(NCCc4ccc(CCC(=O)O)cc4)nc32)[C@H](O)[C@@H]1O [CGS21680]	increase IL-1β production to a comparable degree to NECA and EHNA	not increased	–	–
CCNC(=O)[C@H]1O[C@@H](n2cnc3c(N)ncnc32)[C@H](O)[C@@H]1O [NECA, 5′-(N-ethylcarboxamido) adenosine]	stimulated an increase; also recorded: increased	not increased	to a similar degree	did not result in significant production of IL-1β
